{"source": "patent US7288510B2", "about": "“Nitrogen-containing ortho ester-based surfactant, its preparation and use” (priority 2001, dated 2007)", "key": {"[1]": {"assay": "surface tension at a concentration of 0.1%", "assay_type": "physicochemical", "details": "pH 8 buffer solution, bubble pressure method"}, "[2]": {"assay": "dynamic contact angle of alkaline formulations", "assay_type": "physicochemical", "details": "formulation diluted 1:10, on Parafilm PM-922", "procedure": "In this example, the wetting properties of alkaline formulations of some of the surfactants earlier described are tested by dynamic contact angle measurements.\nFormulations I-III above were diluted 1:10 before measurements. The dynamic contact angle was measured on a hydrophobic, polymeric material (Parafilm PM-922, American Can Company) using a First Ten Ångstroms FTÅ 200 instrument (Portsmouth, Va., USA) equipped with a video camera and an image analyzing unit."}, "[3]": {"assay": "foaming behaviour (proposed ISO 4877 circulation method)", "assay_type": "physicochemical", "method": "The surfactant is dissolved in distilled water and diluted to a defined concentration. 500 ml of this solution is transferred to a thermostatable glass cylinder, graduated to 1500 ml. The solution is then circulated through a stainless steel tube using a pump. The solution enters the tube in the bottom of the glass cylinder and is released ca. 14 cm above the 1500-ml mark on the cylinder. The pump speed is 200 liter/h.\nThe solution is circulated for 10 minutes (foam level recorded each minute), the pump is then stopped, and the foam level recorded for additional 5 minutes (proposed ISO-method ISO 4877)."}, "[4]": {"details": "literature value; cited from earlier work"}, "[5]": {"assay": "hydrotrope test: clarity interval of cleaning formulation", "assay_type": "physicochemical", "details": "for Active amount of hydrotrope added: amount needed until the formulation of Table 10 was clear; for Cloud point of formulation: formulation of Table 10 with the hydrotrope", "method": "[table] Tetrapotassium pyrophoshate and sodium metasilicate pentahydrate were dissolved in tap water. The ethoxylated alcohol was added to this solution, which then turned cloudy. The hydrotrope was added until the solution was clear, and the required amount was recorded. Then the temperature was raised until the mixture went cloudy again."}}, "note": "Marks after values point to notes of the source that are not given here."}
{"compound": "CCCCCCCCCCCC[N+](C)(C)C.[Br-]", "note": "[Dodecyltrimethylammonium bromide, n-dodecyltrimethylammonium bromide]", "values": [{"measurement": "γ at 0.10% and 21° C.", "setting": "[1]", "value": 52.5, "unit": "mN/m"}, {"measurement": "Contact angle after 10 s", "setting": "[2]", "value": 68.2, "unit": "°"}, {"measurement": "Contact angle after 30 s", "setting": "[2]", "value": 67.9, "unit": "°"}, {"measurement": "Contact angle after 1 min", "setting": "[2]", "value": 67.4, "unit": "°"}, {"measurement": "foaming behaviour in words", "setting": "[3]", "value": "not affected by the addition of acid"}, {"measurement": "Foam Volume", "setting": "[3]; 0.01% in distilled water, 1 min, circulating", "value": 160, "unit": "mL"}, {"measurement": "Foam Volume", "setting": "[3]; 0.01% in distilled water, 2 min, circulating", "value": 160, "unit": "mL"}, {"measurement": "Foam Volume", "setting": "[3]; 0.01% in distilled water, 3 min, circulating", "value": 160, "unit": "mL"}, {"measurement": "Foam Volume", "setting": "[3]; 0.01% in distilled water, 4 min, circulating", "value": 140, "unit": "mL"}, {"measurement": "Foam Volume", "setting": "[3]; 0.01% in distilled water, 5 min, circulating", "value": 140, "unit": "mL"}, {"measurement": "Foam Volume", "setting": "[3]; 0.01% in distilled water, 6 min, circulating", "value": 140, "unit": "mL"}, {"measurement": "Foam Volume", "setting": "[3]; 0.01% in distilled water, 7 min, circulating", "value": 140, "unit": "mL"}, {"measurement": "Foam Volume", "setting": "[3]; 0.01% in distilled water, 8 min, circulating", "value": 140, "unit": "mL"}, {"measurement": "Foam Volume", "setting": "[3]; 0.01% in distilled water, 9 min, circulating", "value": 140, "unit": "mL"}, {"measurement": "Foam Volume", "setting": "[3]; 0.01% in distilled water, 10 min, circulating", "value": 140, "unit": "mL"}, {"measurement": "Foam Volume", "setting": "[3]; 0.01% in distilled water, 11 min, pump stopped at 10 min", "value": 0, "unit": "mL"}, {"measurement": "Foam Volume", "setting": "[3]; 0.01% in distilled water, 12 min, pump stopped at 10 min", "value": 0, "unit": "mL"}, {"measurement": "Foam Volume", "setting": "[3]; 0.01% in distilled water, 13 min, pump stopped at 10 min", "value": 0, "unit": "mL"}, {"measurement": "Foam Volume", "setting": "[3]; 0.01% in distilled water, 14 min, pump stopped at 10 min", "value": 0, "unit": "mL"}, {"measurement": "Foam Volume", "setting": "[3]; 0.01% in distilled water, 15 min, pump stopped at 10 min", "value": 0, "unit": "mL"}, {"measurement": "Foam Volume", "setting": "[3]; 0.1% acid treated (pH 2.5, sulfuric acid, stirred 10 minutes), 1 min, circulating", "value": 820, "unit": "mL"}, {"measurement": "Foam Volume", "setting": "[3]; 0.1% acid treated (pH 2.5, sulfuric acid, stirred 10 minutes), 2 min, circulating", "value": 1100, "unit": "mL"}, {"measurement": "Foam Volume", "setting": "[3]; 0.1% acid treated (pH 2.5, sulfuric acid, stirred 10 minutes), 3 min, circulating", "value": 1280, "unit": "mL"}, {"measurement": "Foam Volume", "setting": "[3]; 0.1% acid treated (pH 2.5, sulfuric acid, stirred 10 minutes), 4 min, circulating", "value": 1360, "unit": "mL"}, {"measurement": "Foam Volume", "setting": "[3]; 0.1% acid treated (pH 2.5, sulfuric acid, stirred 10 minutes), 5 min, circulating", "value": 1380, "unit": "mL"}, {"measurement": "Foam Volume", "setting": "[3]; 0.1% acid treated (pH 2.5, sulfuric acid, stirred 10 minutes), 6 min, circulating", "value": 1380, "unit": "mL"}, {"measurement": "Foam Volume", "setting": "[3]; 0.1% acid treated (pH 2.5, sulfuric acid, stirred 10 minutes), 7 min, circulating", "value": 1360, "unit": "mL"}, {"measurement": "Foam Volume", "setting": "[3]; 0.1% acid treated (pH 2.5, sulfuric acid, stirred 10 minutes), 8 min, circulating", "value": 1360, "unit": "mL"}, {"measurement": "Foam Volume", "setting": "[3]; 0.1% acid treated (pH 2.5, sulfuric acid, stirred 10 minutes), 9 min, circulating", "value": 1350, "unit": "mL"}, {"measurement": "Foam Volume", "setting": "[3]; 0.1% acid treated (pH 2.5, sulfuric acid, stirred 10 minutes), 10 min, circulating", "value": 1340, "unit": "mL"}, {"measurement": "Foam Volume", "setting": "[3]; 0.1% acid treated (pH 2.5, sulfuric acid, stirred 10 minutes), 11 min, pump stopped at 10 min", "value": 800, "unit": "mL"}, {"measurement": "Foam Volume", "setting": "[3]; 0.1% acid treated (pH 2.5, sulfuric acid, stirred 10 minutes), 12 min, pump stopped at 10 min", "value": 340, "unit": "mL"}, {"measurement": "Foam Volume", "setting": "[3]; 0.1% acid treated (pH 2.5, sulfuric acid, stirred 10 minutes), 13 min, pump stopped at 10 min", "value": 280, "unit": "mL"}, {"measurement": "Foam Volume", "setting": "[3]; 0.1% acid treated (pH 2.5, sulfuric acid, stirred 10 minutes), 14 min, pump stopped at 10 min", "value": 120, "unit": "mL"}, {"measurement": "Foam Volume", "setting": "[3]; 0.1% acid treated (pH 2.5, sulfuric acid, stirred 10 minutes), 15 min, pump stopped at 10 min", "value": 60, "unit": "mL"}, {"measurement": "Foam Volume", "setting": "[3]; 0.1% in distilled water, 1 min, circulating", "value": 780, "unit": "mL"}, {"measurement": "Foam Volume", "setting": "[3]; 0.1% in distilled water, 2 min, circulating", "value": 1080, "unit": "mL"}, {"measurement": "Foam Volume", "setting": "[3]; 0.1% in distilled water, 3 min, circulating", "value": 1260, "unit": "mL"}, {"measurement": "Foam Volume", "setting": "[3]; 0.1% in distilled water, 4 min, circulating", "value": 1340, "unit": "mL"}, {"measurement": "Foam Volume", "setting": "[3]; 0.1% in distilled water, 5 min, circulating", "value": 1370, "unit": "mL"}, {"measurement": "Foam Volume", "setting": "[3]; 0.1% in distilled water, 6 min, circulating", "value": 1360, "unit": "mL"}, {"measurement": "Foam Volume", "setting": "[3]; 0.1% in distilled water, 7 min, circulating", "value": 1360, "unit": "mL"}, {"measurement": "Foam Volume", "setting": "[3]; 0.1% in distilled water, 8 min, circulating", "value": 1340, "unit": "mL"}, {"measurement": "Foam Volume", "setting": "[3]; 0.1% in distilled water, 9 min, circulating", "value": 1320, "unit": "mL"}, {"measurement": "Foam Volume", "setting": "[3]; 0.1% in distilled water, 10 min, circulating", "value": 1320, "unit": "mL"}, {"measurement": "Foam Volume", "setting": "[3]; 0.1% in distilled water, 11 min, pump stopped at 10 min", "value": 1200, "unit": "mL"}, {"measurement": "Foam Volume", "setting": "[3]; 0.1% in distilled water, 12 min, pump stopped at 10 min", "value": 800, "unit": "mL"}, {"measurement": "Foam Volume", "setting": "[3]; 0.1% in distilled water, 13 min, pump stopped at 10 min", "value": 400, "unit": "mL"}, {"measurement": "Foam Volume", "setting": "[3]; 0.1% in distilled water, 14 min, pump stopped at 10 min", "value": 260, "unit": "mL"}, {"measurement": "Foam Volume", "setting": "[3]; 0.1% in distilled water, 15 min, pump stopped at 10 min", "value": 180, "unit": "mL"}, {"measurement": "cmc at 21° C.", "setting": "[4]", "value": "4.9^c g/l"}]}
{"compound": "CC(C)c1ccc(S(=O)(=O)[O-])cc1.[Na+]", "note": "[Sodium cumene sulfonate]", "values": [{"measurement": "Active amount of hydrotrope added", "setting": "[5]", "value": "9.0 % (w/w)"}, {"measurement": "Cloud point of formulation", "setting": "[5]", "value": "45-50 °C"}]}
{"compound": "CCCCCCCCCCCCCC[N+](C)(C)C.[Br-]", "note": "[Tetradecyltrimethylammonium bromide, n-tetradecyltrimethylammonium bromide]", "values": [{"measurement": "γ at 0.10% and 21° C.", "setting": "[1]", "value": 41.5, "unit": "mN/m"}, {"measurement": "Contact angle after 10 s", "setting": "[2]", "value": 60.4, "unit": "°"}, {"measurement": "Contact angle after 30 s", "setting": "[2]", "value": 60.1, "unit": "°"}, {"measurement": "Contact angle after 1 min", "setting": "[2]", "value": 59.1, "unit": "°"}, {"measurement": "cmc at 21° C.", "setting": "[4]", "value": "1.2^d g/l"}]}
{"compound": "disodium octyliminodipropionate", "values": [{"measurement": "Active amount of hydrotrope added", "setting": "[5]", "value": "6.0 % (w/w)"}, {"measurement": "Cloud point of formulation", "setting": "[5]", "value": "45-50 °C"}]}
